# Assay results as given in patent US20260102501A1, “ANTI-CANCER NUCLEAR HORMONE RECEPTOR-TARGETING COMPOUNDS” (Nuvation Bio Inc., priority 2022, published 2026).
# Substitutions are numbered along the chain they refer to. Counter-ions that a name gives are not always drawn. Like-named read-outs stand apart in the source and are kept apart here.
# Legend:
# [1] = molecular target: T1, AR (cytosol from LnCaP cells) (Homo sapiens, UniProt P10275, T878A); assay: AR binding assay (3H-R1881 displacement)
# T1 sequence (P10275 1-920 T878A): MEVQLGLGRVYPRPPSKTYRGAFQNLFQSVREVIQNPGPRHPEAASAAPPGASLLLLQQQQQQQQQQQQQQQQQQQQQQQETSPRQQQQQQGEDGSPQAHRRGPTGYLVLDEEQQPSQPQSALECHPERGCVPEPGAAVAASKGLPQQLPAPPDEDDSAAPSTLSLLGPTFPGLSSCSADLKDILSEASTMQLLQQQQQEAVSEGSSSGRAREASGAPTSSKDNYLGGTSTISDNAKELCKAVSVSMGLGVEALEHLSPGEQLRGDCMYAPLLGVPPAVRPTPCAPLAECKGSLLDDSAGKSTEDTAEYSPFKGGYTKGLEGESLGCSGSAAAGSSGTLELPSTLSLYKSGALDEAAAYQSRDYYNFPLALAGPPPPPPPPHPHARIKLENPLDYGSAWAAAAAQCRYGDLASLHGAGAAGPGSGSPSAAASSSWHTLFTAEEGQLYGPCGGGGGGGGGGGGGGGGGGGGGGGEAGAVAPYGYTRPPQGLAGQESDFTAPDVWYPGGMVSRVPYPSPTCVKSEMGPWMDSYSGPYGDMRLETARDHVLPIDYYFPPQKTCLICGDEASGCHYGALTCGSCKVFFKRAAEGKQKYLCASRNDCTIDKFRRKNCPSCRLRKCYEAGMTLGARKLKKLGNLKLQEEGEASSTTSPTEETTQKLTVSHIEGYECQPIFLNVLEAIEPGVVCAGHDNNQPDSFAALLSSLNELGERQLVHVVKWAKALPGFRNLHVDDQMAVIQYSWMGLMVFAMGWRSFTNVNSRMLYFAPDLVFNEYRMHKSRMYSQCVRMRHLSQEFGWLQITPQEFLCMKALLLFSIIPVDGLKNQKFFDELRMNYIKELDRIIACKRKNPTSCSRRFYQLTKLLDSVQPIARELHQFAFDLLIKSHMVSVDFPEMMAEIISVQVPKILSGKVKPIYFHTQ
# Procedure: The plate was then centrifuged at 3000 rpm for 30 minutes at 4° C.
# [2] = molecular target: T2, ligand binding domain of the glucocorticoid receptor (HEK293 cells stably expressing) (Homo sapiens, UniProt P04150); assay: GR antagonism assay (luciferase reporter)
# T2 sequence (P04150 524-758 limits assumed): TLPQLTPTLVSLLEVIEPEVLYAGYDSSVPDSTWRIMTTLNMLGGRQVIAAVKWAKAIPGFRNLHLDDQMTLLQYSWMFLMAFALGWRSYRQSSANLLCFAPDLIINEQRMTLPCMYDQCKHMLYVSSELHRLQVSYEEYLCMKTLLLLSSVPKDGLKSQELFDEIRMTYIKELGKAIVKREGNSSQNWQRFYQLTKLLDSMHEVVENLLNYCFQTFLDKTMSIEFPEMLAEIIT
# T47D cells = assay: Cell viability assay (CellTiterGlo); format: cell-based; settings: Homo sapiens, 144 h
# IEC6 cells = assay: Cell viability assay (CellTiterGlo); settings: Rattus norvegicus, IEC-6, 144 h, read-out: IEC-6 (IC50, nM)
# Procedure: (§1) Cell viability assay: LNCap, 22Rv1, MCF7, MDAMB361, T47D, and IEC6 cells were seeded at a density of 500-2000 cells/well in 96 well plates, and a ‘T0’ (timepoint 0) was included along with the assay plate. The plates were then incubated at 37° C., 5% CO2 in a cell culture incubator overnight. On the next day, the ‘T0’ plate was assayed using CellTiterGlo (Promega, Inc) according to the manufacturer's instructions. The appropriate compounds were diluted in DMSO and added to the assay plate (final DMSO concentration of 0.1-0.2%) on the next day. The assay plates were incubated for 6 days at 37° C., 5% CO2. After the incubation period, the plates were assayed using CellTiterGlo (Promega, Inc) according to the manufacturer's instructions and luminescence was read on the En Vision plate reader. […] GraphPadPrism was used to analyze the data and determine GI50/IC50 values.
# LNCap cells = assay: Cell viability assay (CellTiterGlo); format: cell-based; settings: Homo sapiens, 144 h
# [3] = molecular target: T3, Progesterone PR-B receptors from human breast carcinoma T47D cells (Homo sapiens, UniProt P06401); assay: PR binding assay ([3H] Progesterone displacement)
# T3 sequence (P06401 1-933): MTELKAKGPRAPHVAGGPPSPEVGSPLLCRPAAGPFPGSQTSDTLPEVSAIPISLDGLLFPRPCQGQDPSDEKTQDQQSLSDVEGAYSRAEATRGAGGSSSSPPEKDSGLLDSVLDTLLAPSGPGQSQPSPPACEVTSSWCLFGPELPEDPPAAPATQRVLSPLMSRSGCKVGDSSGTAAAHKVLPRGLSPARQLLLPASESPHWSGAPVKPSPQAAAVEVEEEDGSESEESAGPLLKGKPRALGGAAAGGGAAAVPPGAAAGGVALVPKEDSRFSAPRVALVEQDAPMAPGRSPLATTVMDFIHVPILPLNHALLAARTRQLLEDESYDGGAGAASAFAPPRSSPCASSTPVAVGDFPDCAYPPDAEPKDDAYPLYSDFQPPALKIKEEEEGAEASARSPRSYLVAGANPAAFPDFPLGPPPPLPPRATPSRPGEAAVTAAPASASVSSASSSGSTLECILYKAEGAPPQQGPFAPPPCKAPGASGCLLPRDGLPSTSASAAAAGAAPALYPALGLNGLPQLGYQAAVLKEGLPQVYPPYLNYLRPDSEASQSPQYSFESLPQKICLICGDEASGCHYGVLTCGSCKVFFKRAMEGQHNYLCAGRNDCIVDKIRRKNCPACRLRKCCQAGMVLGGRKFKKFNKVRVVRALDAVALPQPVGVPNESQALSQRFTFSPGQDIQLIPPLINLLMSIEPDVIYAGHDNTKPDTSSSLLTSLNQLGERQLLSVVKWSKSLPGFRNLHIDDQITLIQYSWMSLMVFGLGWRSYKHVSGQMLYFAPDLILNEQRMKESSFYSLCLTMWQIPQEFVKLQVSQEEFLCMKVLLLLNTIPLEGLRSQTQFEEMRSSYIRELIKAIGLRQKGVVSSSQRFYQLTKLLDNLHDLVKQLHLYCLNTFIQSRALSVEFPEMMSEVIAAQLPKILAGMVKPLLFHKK
# [4] = molecular target: T4, full-length androgen receptor (HEK293 cells stably expressing) (Homo sapiens, UniProt P10275); assay: AR antagonism assay (luciferase reporter)
# T4 sequence (P10275 1-920): T1 sequence (P10275 1-920 T878A) with A878T
# 22Rv1 cells = assay: Cell viability assay (CellTiterGlo); settings: Homo sapiens, 22Rv1, 144 h, read-out: 22RV1 (IC50, nM)
# Procedure: as §1
# [5] = 6 days incubation, CellTiterGlo, read-out: LNCap (IC50)
SMILES,IC50 [1],IC50 [2],"IC50 (T47D cells; read-out: T47D (IC50, nM))",IC50 (IEC6 cells),"IC50 (LNCap cells; read-out: LNCap (IC50, nM))",IC50 [3],IC50 [4],IC50 (22Rv1 cells),IC50 (LNCap cells; [5]),"IC50 (T47D cells; 6 days incubation, CellTiterGlo, read-out: T47D (IC50))",IC50 (T47D cells; read-out: T47D (IC50)),IC50 (LNCap cells; read-out: LNCap (IC50))
CC[C@@]1(O)C(=O)OCc2c1cc1n(c2=O)Cc2cc3c(CN(C)C)c(OC(=O)N4C[C@H](C)N(C(=O)[C@H](CCCNC(N)=O)NC(=O)[C@@H](NCCCCCCN(C)c5ccc([C@H]6C[C@@]7(C)[C@@H](CC[C@]7(OC(C)=O)C(C)=O)[C@@H]7CCC8=CC(=O)CCC8=C76)cc5)C(C)C)C[C@H]4C)ccc3nc2-1 [Compound 35],10 to 100 nM,10 to 100 nM,101 to 1000 nM,> 1000 nM,> 1000 nM,< 10 nM,> 1000 nM,,,,,
"CC[C@@]1(O)C(=O)OCc2c1cc1n(c2=O)Cc2cc3c(CN4CCN(CCCCCCC5CCN(c6ccc(C(=O)N[C@H]7CC[C@H](N(C)c8ccc(C#N)c(Cl)c8)CC7)nn6)CC5)CC4)c(O)ccc3nc2-1 [Compound 56, N-((1r,4r)-4-((3-chloro-4-cyanophenyl)(methyl)amino)cyclohexyl)-6-(4-(6-(4-(((S)-4-ethyl-4,9-dihydroxy-3,14-dioxo-3,4,12,14-tetrahydro-1H-pyrano[3′,4′:6,7]indolizino[1,2-b]quinolin-10-yl)methyl)piperazin-1-yl)hexyl)piperidin-1-yl)pyridazine-3-carboxamide]",101 to 1000 nM,,,101 to 1000 nM,,10 to 100 nM,101 to 1000 nM,10 to 100 nM,10 to 100 nM,,,
"CC[C@@]1(O)C(=O)OCc2c1cc1n(c2=O)Cc2c-1nc1cc(F)c(C)c3c1c2[C@@H](NC(=O)COC(=O)N1CCN(CCCCCCN(C)c2ccc([C@H]4C[C@@]5(C)[C@@H](CC[C@]5(OC(C)=O)C(C)=O)[C@@H]5CCC6=CC(=O)CCC6=C54)cc2)CC1)CC3 [Compound 42, 2-(((1S,9S)-9-ethyl-5-fluoro-9-hydroxy-4-methyl-10,13-dioxo-2,3,9,10,13,15-hexahydro-1H,12H-benzo[de]pyrano[3′,4′:6,7]indolizino[1,2-b]quinolin-1-yl)amino)-2-oxoethyl 4-(6-((4-((8S,11R,13S,14S,17R)-17-acetoxy-17-acetyl-13-methyl-3-oxo-2,3,6,7,8,11,12,13,14,15,16,17-dodecahydro-1H-cyclopenta[a]phenanthren-11-yl)phenyl)(methyl)amino)hexyl)piperazine-1-carboxylate]",10 to 100 nM,10 to 100 nM,,> 1000 nM,,< 10 nM,101 to 1000 nM,101 to 1000 nM,101 to 1000 nM,,,
"CC[C@@]1(O)C(=O)OCc2c1cc1n(c2=O)Cc2cc3c(CN4CCN(CCCCCCN(C)c5ccc([C@H]6C[C@@]7(C)[C@@H](CC[C@]7(OC(C)=O)C(C)=O)[C@@H]7CCC8=CC(=O)CCC8=C76)cc5)CC4)cccc3nc2-1 [Compound 38, (8S,11R,13S,14S,17R)-17-acetyl-11-(4-((6-(4-(((S)-4-ethyl-4-hydroxy-3,14-dioxo-3,4,12,14-tetrahydro-1H-pyrano[3′,4′:6,7]indolizino[1,2-b]quinolin-10-yl)methyl)piperazin-1-yl)hexyl)(methyl)amino)phenyl)-13-methyl-3-oxo-2,3,6,7,8,11,12,13,14,15,16,17-dodecahydro-1H-cyclopenta[a]phenanthren-17-yl acetate]",< 10 nM,10 to 100 nM,,> 1000 nM,,< 10 nM,> 1000 nM,,101 to 1000 nM,101 to 1000 nM,,
"CC[C@@]1(OC(=O)N2CCN(CCCCCCN(C)c3ccc([C@H]4C[C@@]5(C)[C@@H](CC[C@]5(OC(C)=O)C(C)=O)[C@@H]5CCC6=CC(=O)CCC6=C54)cc3)CC2)C(=O)OCc2c1cc1n(c2=O)Cc2cc3cc(OC)ccc3nc2-1 [Compound 24, (S)-4-Ethyl-9-methoxy-3,14-dioxo-3,4,12,14-tetrahydro-1H-pyrano[3′,4′:6,7]indolizino[1,2-b]quinolin-4-yl 4-(6-((4-((8S,11R,13S,14S,17R)-17-acetoxy-17-acetyl-13-methyl-3-oxo-2,3,6,7,8,11,12,13,14,15,16,17-dodecahydro-1H-cyclopenta[a]phenanthren-11-yl)phenyl)(methyl)amino)hexyl)piperazine-1-carboxylate Formate]",,,,,,< 10 nM,,,,,101 to 1000 nM,101 to 1000 nM
